Square brackets hold non-standard residues; d marks the D form. Peptide text beside a SMILES is read from it. * marks the point of attachment. Diglycolyl(TOTA) = NCCCOCCOCCOCCCNC(=O)COCC(=O)*; Chg = N[C@H](C(=O)O)C1CCCCC1; X1 = COCCOCCOCCOCCC(=O)*; Ahx = NCCCCCC(=O)O

Results on 9 molecules are retold here after patent publication US11566047B2, “Peptide or pharmaceutically acceptable salt thereof, or prodrug thereof” (TOKYO UNIVERSITY OF PHARMACY & LIFE SCIENCES, priority 2016, dated 2023).

The assay deals with T1, myostatin (Homo sapiens, UniProt O14793).
T1 sequence (O14793 267-375): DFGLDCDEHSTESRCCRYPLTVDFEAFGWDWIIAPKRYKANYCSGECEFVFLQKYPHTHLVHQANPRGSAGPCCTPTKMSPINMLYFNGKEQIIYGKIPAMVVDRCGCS
Description: cell-based. The conditions noted are these: HEK293, read-out: luciferase activity (relative; myostatin without test sample = 100%). The procedure: Human embryo kidney cell HEK293 cells were cultured in a 5% (v/v) CO2 incubator set to 37° C. using DMEM (NACALAI TESQUE, INC.) including a 10% (v/v) fetal bovine serum (FBS) added with a 1% (v/v) non-essential amino acid (Wako Pure Chemical Corporation).
(2) In Vitro Reporter Assay
HEK293 cells were seeded on a D-Lys-corted 96-well transparent plate (Thermo Fisher Scientific Inc.) in an amount of 2.0×10^4 cells (100 μL DMEM+10% (v/v) FBS) per well and were cultured for 24 hours.
The cells were cultured at 37° C. for 24 hours, and after the cell culture solution was replaced with serum-free DMEM, the cells were cultured for 8 hours. Incidentally, pGL4.48 [luc2P/SBE/Hygro] includes firefly luciferase reporter gene luc2P under Smad binding region (SBE) control, and when a signaling pathway by the myostatin is activated, intracellular Smad forms a complex, and the complex is bonded to SBE to promote transcription of luc2P.
The peptide as a test sample was suspended as a stock solution using DMSO to become 10 mM and stored at −30° C. Before 1 hour from addition to the culture medium, the peptide and a myostatin (Merck Millipore Corp.) were suspended with serum-free DMEM and left to stand still at room temperature (25° C.) for 20 minutes. Subsequently, a peptide with an arbitrary final concentration (0.3 to […]) and 8 ng/mL of myostatin were added to the culture medium, and then culturing was performed for 4 hours. After culturing for 4 hours, the culture solution was removed by an aspirator and the cells were washed with 1×PBS. Thereafter, Passive Lysis buffer (Promega Corporation) was added in an amount of 50 μL per well to dissolve the cells. The dissolving solution was subjected to centrifugal separation at 4500 rpm for 6 minutes under the condition of 4° C. After 20 μL of supernatant subjected to centrifugal separation was transferred to a white 96-well plate (Costar), 50 μL of Luciferase Assay Reagent (Promega Corporation) was then added, emission was detected by Luminoskan Ascent (Thermo Fisher Scientific Inc.), and a firefly luciferase activity was measured. Further, after 50 μL of Stop & Glo Buffer (Promega Corporation) was added, emission was detected by Luminoskan Ascent, and a Renilla luciferase activity was measured to be regarded as an internal control.

With `CC[C@H](C)[C@H](NC(=O)[C@H](Cc1ccc(O)cc1)NC(=O)[C@H](Cc1c[nH]c2ccccc12)NC(=O)CCCCCNC(=O)CCOCCOCCOCCOC)C(=O)N[C@@H](CCC(=O)O)C(=O)N[C@@H](Cc1c[nH]c2ccccc12)C(=O)N[C@H](C(=O)N[C@@H](CCCCN)C(=O)N[C@H](C(=O)N[C@@H](CCC(N)=O)C(=O)N[C@H](C(=O)N[C@@H](Cc1c[nH]c2ccccc12)C(=O)N[C@@H](CO)C(=O)N[C@@H](CCCCN)C(=O)N[C@@H](CC(C)C)C(=O)N[C@@H](CCCNC(=N)N)C(=O)N[C@@H](CC(C)C)C(N)=O)[C@@H](C)CC)[C@@H](C)CC)[C@@H](C)CC` [PDM-55, R^111-WYIEWIKIQIWSKLRL-NH2] ({X1-Ahx}-WYIEWIKIQIWSKLRL-NH2), the remaining activity at 0.3 µM is at most 60%.

As to `CC[C@H](C)[C@H](NC(=O)[C@H](Cc1ccc(O)cc1)NC(=O)[C@H](Cc1c[nH]c2ccccc12)NC(=O)CCCCCNC(=O)CCOCCOCCOCCOC)C(=O)N[C@@H](CCC(=O)O)C(=O)N[C@@H](CO)C(=O)N[C@H](C(=O)N[C@@H](CCCCN)C(=O)N[C@H](C(=O)N[C@@H](CCC(N)=O)C(=O)N[C@H](C(=O)N[C@@H](Cc1c[nH]c2ccccc12)C(=O)N[C@@H](CO)C(=O)N[C@@H](CCCCN)C(=O)N[C@@H](CC(C)C)C(=O)N[C@@H](CCCNC(=N)N)C(=O)N[C@@H](CC(C)C)C(N)=O)[C@@H](C)CC)[C@@H](C)CC)[C@@H](C)CC` [PDM-63, R^111-WYIESIKIQIWSKLRL-NH2] ({X1-Ahx}-WYIESIKIQIWSKLRL-NH2), the remaining activity at 0.3 µM is at most 60%.

Consider `CC[C@H](C)[C@H](NC(=O)[C@H](CCC(N)=O)NC(=O)[C@@H](NC(=O)[C@H](CCCNC(=N)N)NC(=O)[C@@H](NC(=O)[C@@H](Cc1c[nH]c2ccccc12)NC(=O)[C@H](CCCNC(=N)N)NC(=O)[C@@H](NC(=O)[C@H](Cc1ccc(O)cc1)NC(=O)[C@H](Cc1c[nH]c2ccccc12)NC(=O)CCCCCNC(=O)CCOCCOCCOCCOC)[C@@H](C)CC)[C@@H](C)CC)C1CCCCC1)C(=O)N[C@@H](Cc1c[nH]c2ccccc12)C(=O)N[C@@H](CO)C(=O)N[C@@H](CCCNC(=N)N)C(=O)N[C@H](C(=O)N1CCC[C@H]1C(=O)N[C@@H](CC(C)C)C(N)=O)C1CCCCC1` [PDM-80, R^111-WYIRwIR-Chg-QIWSR-Chg-PL-NH2] ({X1-Ahx}-WYIR[dW]IR[Chg]QIWSR[Chg]PL-NH2), for which the remaining activity at 0.3 µM is at most 60%.

As to `CC[C@H](C)[C@H](NC(=O)[C@H](CCC(N)=O)NC(=O)[C@@H](NC(=O)[C@H](CCCCN)NC(=O)[C@@H](NC(=O)[C@@H](Cc1c[nH]c2ccccc12)NC(=O)[C@H](CCCNC(=N)N)NC(=O)[C@@H](NC(=O)[C@H](Cc1ccc(O)cc1)NC(=O)[C@H](Cc1c[nH]c2ccccc12)NC(=O)CCCCCNC(=O)CCOCCOCCOCCOC)[C@@H](C)CC)[C@@H](C)CC)C1CCCCC1)C(=O)N[C@@H](Cc1c[nH]c2ccccc12)C(=O)N[C@@H](CO)C(=O)N[C@@H](CCCCN)C(=O)N[C@H](C(=O)N[C@@H](CCCNC(=N)N)C(=O)N[C@@H](CC(C)C)C(N)=O)C1CCCCC1` [PDM-86, R^111-WYIRwIK-Chg-QIWSK-Chg-RL-NH2] ({X1-Ahx}-WYIR[dW]IK[Chg]QIWSK[Chg]RL-NH2), the remaining activity at 0.3 µM was at most 60%.

Turning to `CC[C@H](C)[C@H](NC(=O)[C@H](CCC(N)=O)NC(=O)[C@@H](NC(=O)[C@H](CCCCN)NC(=O)[C@@H](NC(=O)[C@@H](Cc1c[nH]c2ccccc12)NC(=O)[C@H](CCCNC(=N)N)NC(=O)[C@@H](NC(=O)[C@H](Cc1ccc(O)cc1)NC(=O)[C@H](Cc1c[nH]c2ccccc12)NC(=O)CCCCCNC(=O)COCC(=O)NCCCOCCOCCOCCCN)[C@@H](C)CC)[C@@H](C)CC)C1CCCCC1)C(=O)N[C@@H](Cc1c[nH]c2ccccc12)C(=O)N[C@@H](CO)C(=O)N[C@@H](CCCCN)C(=O)N[C@H](C(=O)N[C@@H](CCCNC(=N)N)C(=O)N[C@@H](CC(C)C)C(N)=O)C1CCCCC1` [PDM-89, R^115-WYIRwIK-Chg-QIWSK-Chg-RL-NH2] ({Diglycolyl(TOTA)-Ahx}-WYIR[dW]IK[Chg]QIWSK[Chg]RL-NH2), the remaining activity at 0.3 µM is at most 60%.

Turning to `CC[C@H](C)[C@H](NC(=O)[C@H](CCC(N)=O)NC(=O)[C@@H](NC(=O)[C@H](CCCCN)NC(=O)[C@@H](NC(=O)[C@@H](Cc1c[nH]c2ccccc12)NC(=O)[C@H](CCCNC(=N)N)NC(=O)[C@@H](NC(=O)[C@H](Cc1ccc(O)cc1)NC(=O)[C@H](Cc1c[nH]c2ccccc12)NC(=O)CNC(=O)COCC(=O)NCCCOCCOCCOCCCN)[C@@H](C)CC)[C@@H](C)CC)C1CCCCC1)C(=O)N[C@@H](Cc1c[nH]c2ccccc12)C(=O)N[C@@H](CO)C(=O)N[C@@H](CCCCN)C(=O)N[C@H](C(=O)N[C@@H](CCCNC(=N)N)C(=O)N[C@@H](CC(C)C)C(N)=O)C1CCCCC1` [PDM-90, R^116-WYIRwIK-Chg-QIWSK-Chg-RL-NH2] ({Diglycolyl(TOTA)}-GWYIR[dW]IK[Chg]QIWSK[Chg]RL-NH2), the remaining activity at 0.3 µM is at most 60%.

Regarding `CC[C@H](C)[C@H](NC(=O)[C@H](CCC(N)=O)NC(=O)[C@@H](NC(=O)[C@H](CCCCN)NC(=O)[C@@H](NC(=O)[C@@H](Cc1c[nH]c2ccccc12)NC(=O)[C@H](CCCNC(=N)N)NC(=O)[C@@H](NC(=O)[C@H](Cc1ccc(O)cc1)NC(=O)[C@H](Cc1c[nH]c2ccccc12)NC(=O)CNC(=O)CNC(=O)COCC(=O)NCCCOCCOCCOCCCN)[C@@H](C)CC)[C@@H](C)CC)C1CCCCC1)C(=O)N[C@@H](Cc1c[nH]c2ccccc12)C(=O)N[C@@H](CO)C(=O)N[C@@H](CCCCN)C(=O)N[C@H](C(=O)N[C@@H](CCCNC(=N)N)C(=O)N[C@@H](CC(C)C)C(N)=O)C1CCCCC1` [PDM-91, R^117-WYIRwIK-Chg-QIWSK-Chg-RL-NH2] ({Diglycolyl(TOTA)}-GGWYIR[dW]IK[Chg]QIWSK[Chg]RL-NH2), the remaining activity at 0.3 µM was at most 60%.

Turning to `CC[C@H](C)[C@H](NC(=O)[C@H](CCC(N)=O)NC(=O)[C@@H](NC(=O)[C@H](CCCCN)NC(=O)[C@@H](NC(=O)[C@H](Cc1c[nH]c2ccccc12)NC(=O)[C@H](CCC(=O)O)NC(=O)[C@@H](NC(=O)[C@H](Cc1ccc(O)cc1)NC(=O)[C@@H](N)Cc1c[nH]c2ccccc12)[C@@H](C)CC)[C@@H](C)CC)[C@@H](C)CC)C(=O)N[C@@H](Cc1c[nH]c2ccccc12)C(=O)N[C@@H](CO)C(=O)N[C@@H](CCCCN)C(=O)N[C@@H](CC(C)C)C(=O)N[C@@H](CCCNC(=N)N)C(=O)N[C@@H](CC(C)C)C(N)=O` [nPDM-55, WYIEWIKIQIWSKLRL-NH2] (H-WYIEWIKIQIWSKLRL-NH2), the remaining activity at 0.3 µM was at most 60%.

For `CC[C@H](C)[C@H](NC(=O)[C@H](CCC(N)=O)NC(=O)[C@@H](NC(=O)[C@H](CCCCN)NC(=O)[C@@H](NC(=O)[C@H](Cc1c[nH]c2ccccc12)NC(=O)[C@H](CCCCN)NC(=O)[C@@H](NC(=O)[C@H](Cc1ccc(O)cc1)NC(=O)[C@@H](N)Cc1c[nH]c2ccccc12)[C@@H](C)CC)[C@@H](C)CC)[C@@H](C)CC)C(=O)N[C@@H](Cc1c[nH]c2ccccc12)C(=O)N[C@@H](CO)C(=O)N[C@@H](CCCCN)C(=O)N[C@@H](CC(C)C)C(=O)N[C@@H](CCCNC(=N)N)C(=O)N[C@@H](CC(C)C)C(N)=O` [nPDM-55/E31K, WYIKWIKIQIWSKLRL-NH2] (H-WYIKWIKIQIWSKLRL-NH2), the remaining activity at 0.3 µM was at most 60%.
